From patent publication US8153803B2, “Compositions and methods for modulating sirtuin activity” (The General Hospital Corporation, priority 2006, dated 2012)

Legend:
α-synuclein aggregates [1] = assay: α-Synuclein aggregation phenotype in cells; format: cell-based; settings: correlated with functional rescue
[2] = tested on: H4 neuroglioma cells transfected with α-synuclein; assay: α-Synuclein toxicity assay (adenylate kinase release, ToxiLight); format: cell-based, human; settings: H4 cells overexpressing α-synuclein
Protocol: Cell culture and transfection: HeLa cells were cultured in DMEM supplemented with 10% fetal bovine serum (FBS) and 2 mM L-glutamine. Human H4 neuroglioma cells (“H4 cells” HTB-148 from the American Type Culture Collection (ATCC), Manassas, Va., USA) were maintained in OPTI-MEM (Life Technologies, Grand Island, N.Y., USA) supplemented with 10% FBS. H4 cells were passaged 24 hours prior to transfection and plated in 24-well plates. The cells were transfected, using a pcDNA3.1hygro vector (Invitrogen) and […] (Qiagen, Chatsworth, Calif., USA) according to the manufacturer's instructions. Compounds or DMSO were added after the transfection procedure was concluded.
α-Synuclein toxicity assay: Toxicity was analyzed 24 hours after transfection by measuring the release of adenyate kinase from damaged cells into the culture medium using the ToxiLight™ kit (Cambrex, Walkersville, Md.) according to the manufaturer's protocol.

α-synuclein aggregates [3] = settings: previously identified (WO 05/087217); cited from earlier work
SIRT2 = biological target: T1, SIRT2 (Homo sapiens, UniProt Q8IXJ6); assay: Fluorescent SIRT enzyme assay (recombinant enzyme, fluorescent peptide substrate); format: biochemical
T1 construct: purchased Biomol (Plymouth Meeting, Pa.)
T1 sequence (Q8IXJ6 1-389): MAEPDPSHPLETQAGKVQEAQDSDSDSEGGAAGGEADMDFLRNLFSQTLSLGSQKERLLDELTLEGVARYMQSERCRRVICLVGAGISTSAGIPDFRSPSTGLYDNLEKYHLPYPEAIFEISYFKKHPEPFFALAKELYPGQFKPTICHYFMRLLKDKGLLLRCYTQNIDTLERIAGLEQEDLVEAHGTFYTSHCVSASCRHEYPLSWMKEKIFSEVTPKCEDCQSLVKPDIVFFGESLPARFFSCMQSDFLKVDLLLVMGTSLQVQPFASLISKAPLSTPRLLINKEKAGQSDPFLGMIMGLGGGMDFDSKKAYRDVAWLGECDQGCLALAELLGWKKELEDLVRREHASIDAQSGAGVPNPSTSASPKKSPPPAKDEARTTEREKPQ

[4] = tested on: H4 neuroglioma cells transfected with α-synuclein; settings: previously identified (WO 05/087217); cited from earlier work
SIRT1 = biological target: T2, SIRT1 (Homo sapiens, UniProt Q96EB6); assay: Fluorescent SIRT enzyme assay (recombinant enzyme, fluorescent peptide substrate); format: biochemical; settings: at compound concentrations of 40 μM or higher
T2 sequence (Q96EB6 1-747): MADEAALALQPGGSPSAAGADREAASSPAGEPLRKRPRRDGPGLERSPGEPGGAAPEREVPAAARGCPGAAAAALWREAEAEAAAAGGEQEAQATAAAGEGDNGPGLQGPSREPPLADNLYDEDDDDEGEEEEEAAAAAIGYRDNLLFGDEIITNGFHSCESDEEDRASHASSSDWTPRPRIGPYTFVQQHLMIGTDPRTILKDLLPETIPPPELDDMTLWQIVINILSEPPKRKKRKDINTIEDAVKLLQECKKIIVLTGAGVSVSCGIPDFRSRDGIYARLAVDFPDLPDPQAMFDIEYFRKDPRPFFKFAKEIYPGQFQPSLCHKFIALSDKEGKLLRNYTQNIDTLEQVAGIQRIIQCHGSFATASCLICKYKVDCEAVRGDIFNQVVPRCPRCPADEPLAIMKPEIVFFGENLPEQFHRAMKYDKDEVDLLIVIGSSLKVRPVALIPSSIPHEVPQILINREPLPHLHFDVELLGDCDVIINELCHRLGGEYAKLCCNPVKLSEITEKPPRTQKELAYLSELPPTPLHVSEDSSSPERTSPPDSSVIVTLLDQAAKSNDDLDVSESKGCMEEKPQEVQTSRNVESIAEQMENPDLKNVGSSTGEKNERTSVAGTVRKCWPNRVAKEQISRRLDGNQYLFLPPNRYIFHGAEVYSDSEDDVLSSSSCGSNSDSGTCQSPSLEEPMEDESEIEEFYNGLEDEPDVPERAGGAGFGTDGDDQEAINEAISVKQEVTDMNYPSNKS

HeLa cells = assay: Cell-based SIRT2 inhibition (α-tubulin acetylation, Western blot); design: species or system human
Protocol: Tubulin and sirtuin Western blot analysis: Samples were separated on 10% polyacrylamide gels and transferred to a 0.45 μm PVDF membrane (Millipore, Bedford Mass.). Membranes were blocked with a 5% milk solution in PBST. Blots were then probed with antibodies to either SIRT2 (Santa Cruz A-5 at 1:100), tubulin (Sigma, St. Louis Mo., B-5-1-2) or acetylated tubulin (Sigma, 6-11B-1), both at 1:5000. Secondary detection was performed using an HRP-conjugated anti-mouse antibody (Sigma) at 1:4000, and exposed using an ECL detection kit (PerkinElmer). […] The following morning, medium was removed and fresh medium containing compound was added to the wells. After 3 hours, medium was removed and cells were washed 3× with PBS. After the final wash, 100 μL of a hypotonic lysis buffer was added to each well, and the cells were lysed at 37° C. for 5 minutes. The lysates were transferred to eppendorf tubes and centrifuged at 16,000×g for 10 minutes at room temperature. The resulting supernatant contained soluble tubulin monomers, while the pellet contained the insoluble microtubule polymers. […] SDS sample buffer was added to all the samples, followed by Western blot analysis.

Row | Structure (SMILES) | α-synuclein aggregates / inclusion size (α-synuclein aggregates [1]) | rescue of α-synuclein toxicity [2] | α-synuclein aggregates / inclusions (α-synuclein aggregates [3]) | IC50 (SIRT2; recombinant SIRT2, fluorescent peptide substrate, read-out: IC50 against SIRT2) | selectivity for SIRT2 (SIRT2; versus other sirtuins tested (SIRT1, SIRT3)) | inhibition of α-synuclein-mediated cellular toxicity [4] | inhibition of SIRT1 (SIRT1) | acetylation of α-tubulin in compound-treated cells (HeLa cells)
1 | O=C(Nc1cccc([N+](=O)[O-])c1)c1cccc(S(=O)(=O)N2CCCCCC2)c1 [AK-1, 3-(azepane-1-sulfonyl)-N-(3-nitro-phenyl)-benzamide] | increased inclusion size | prevented some α-synuclein toxicity |  |  |  |  |  | 
2 | O=[N+]([O-])c1ccc(Sc2nnc(COc3ccccc3)n2-c2ccccc2)c2cccnc12 [B2] |  |  | decrease in the number of small α-synuclein aggregates and the formation of large inclusions | 35 µM | selective inhibition of SIRT2 | inhibits α-synuclein-mediated cellular toxicity |  | 
3 | N#C/C(=C\c1ccc(-c2cc(Cl)ccc2Cl)o1)C(=O)Nc1cccc2ncccc12 [AGK2] | formation of large inclusions, while reducing number of small aggregates | can rescue α-synuclein toxicity |  |  |  |  | slightly inhibits | increasing the acetylation of α-tubulin
